# Earlier results, collected in PubChem BioAssay AID1259409 (Chemical Carcinogenesis Research Information System (CCRIS), 2018).
# Test system: rodent chemically induced tumor inhibition, incidence and multiplicity
# Assay: CCRIS tumor inhibitor studies
smiles,measurement,setting,value
COc1ccc2c(c1)c(CC(=O)O)c(C)n2C(=O)c1ccc(Cl)cc1,"tumour outcome (control, treated, inhibition, significance)","Carcinogen: 1,2-DIMETHYLHYDRAZINE DIHYDROCHLORIDE, 306-37-6, Dose [Inhibitor]: 20 MG/L TAP WATER DAILY FOR 32 WK STARTING SIMULTANEOUSLY WITH CARCINOGEN TREATMENT (STUDY DURATION: 32 WK), Route [Inhibitor]: ORAL, Species: RAT, Strain/Sex: SPRAGUE-DAWLEY/MALE, Target Tissue: Type of Lesion: LARGE INTESTINE: TUMOR, Dose [Carcinogen]: 20 MG/KG BW 1/WK FOR 20 WK, Promoter: NONE USED","88%, 56%, 36%, p<0.005"
same,"tumour outcome (control, treated, inhibition, significance)","Carcinogen: 1,2-DIMETHYLHYDRAZINE DIHYDROCHLORIDE, 306-37-6, Dose [Inhibitor]: 20 MG/L TAP WATER DAILY FOR 32 WK STARTING SIMULTANEOUSLY WITH CARCINOGEN TREATMENT (STUDY DURATION: 32 WK), Route [Inhibitor]: ORAL, Species: RAT, Strain/Sex: SPRAGUE-DAWLEY/MALE, Target Tissue: Type of Lesion: SMALL INTESTINE: TUMOR, Dose [Carcinogen]: 20 MG/KG BW 1/WK FOR 20 WK, Promoter: NONE USED","46%, 31%, 33%, not significant"
same,"tumour outcome (control, treated, inhibition, significance)","Carcinogen: 1,2-DIMETHYLHYDRAZINE, 540-73-8, Dose [Inhibitor]: 20 MG/L IN DRINKING WATER DAILY FOR 15 WK STARTING 34 D AFTER CARCINOGEN ADMINISTRATION (STUDY DURATION: 20 WK), Route [Inhibitor]: ORAL, Species: RAT, Strain/Sex: SPRAGUE-DAWLEY/MALE, Target Tissue: Type of Lesion: INTESTINE: TUMOR, Dose [Carcinogen]: 30 MG/KG BW ONCE, Promoter: NONE USED","9/10 (90%), 2/9 (22%), 76%, p 0.0019"
same,"tumour outcome (control, treated, inhibition, significance)","Carcinogen: 1-HYDROXYANTHRAQUINONE, 129-43-1, Dose [Inhibitor]: 0, 16 PMM IN DRINKING WATER FOR 48 WK (STUDY DURATION: 48 WK), Route [Inhibitor]: ORAL, Species: RAT, Strain/Sex: ACI/MALE, Target Tissue: Type of Lesion: LARGE BOWEL: ADENOCARCINOMA, Dose [Carcinogen]: 1.5% IN DIET FOR 48 WK, Promoter: NONE USED","7/27 (26%), 0/14 (0%), 100%), p= 0.03"
same,"tumour outcome (control, treated, inhibition, significance)","Carcinogen: 1-HYDROXYANTHRAQUINONE, 129-43-1, Dose [Inhibitor]: 0, 16 PPM IN DRINKING WATER FOR 48 WK (STUDY DURATION: 48 WK), Route [Inhibitor]: ORAL, Species: RAT, Strain/Sex: ACI/MALE, Target Tissue: Type of Lesion: CECUM: ADENOCARCINOMA, Dose [Carcinogen]: 1.5% IN DIET FOR 48 WK, Promoter: NONE USED","3/27 (11%), 0/14 (0%), 100%, not calculated"
same,"tumour outcome (control, treated, inhibition, significance)","Carcinogen: 1-HYDROXYANTHRAQUINONE, 129-43-1, Dose [Inhibitor]: 0, 16 PPM IN DRINKING WATER FOR 48 WK (STUDY DURATION: 48 WK), Route [Inhibitor]: ORAL, Species: RAT, Strain/Sex: ACI/MALE, Target Tissue: Type of Lesion: CECUM: ADENOMA, Dose [Carcinogen]: 1.5% IN DIET FOR 48 WK, Promoter: NONE USED","2/27 (7%), 0/14 (0%), 100%, not calculated"
same,"tumour outcome (control, treated, inhibition, significance)","Carcinogen: 1-HYDROXYANTHRAQUINONE, 129-43-1, Dose [Inhibitor]: 0, 16 PPM IN DRINKING WATER FOR 48 WK (STUDY DURATION: 48 WK), Route [Inhibitor]: ORAL, Species: RAT, Strain/Sex: ACI/MALE, Target Tissue: Type of Lesion: COLON: ADENOCARCINOMA, Dose [Carcinogen]: 1.5% IN DIET FOR 48 WK, Promoter: NONE USED","5/27 (19%), 0/14 (0%), 100%, not calculated"
same,"tumour outcome (control, treated, inhibition, significance)","Carcinogen: 1-HYDROXYANTHRAQUINONE, 129-43-1, Dose [Inhibitor]: 0, 16 PPM IN DRINKING WATER FOR 48 WK (STUDY DURATION: 48 WK), Route [Inhibitor]: ORAL, Species: RAT, Strain/Sex: ACI/MALE, Target Tissue: Type of Lesion: COLON: ADENOMA OR ADENOCARCINOMA, Dose [Carcinogen]: 1.5% IN DIET FOR 48 WK, Promoter: NONE USED","9/27 (33%), 0/14 (0%), 100%, p<0.01"
same,"tumour outcome (control, treated, inhibition, significance)","Carcinogen: 1-HYDROXYANTHRAQUINONE, 129-43-1, Dose [Inhibitor]: 0, 16 PPM IN DRINKING WATER FOR 48 WK (STUDY DURATION: 48 WK), Route [Inhibitor]: ORAL, Species: RAT, Strain/Sex: ACI/MALE, Target Tissue: Type of Lesion: COLON: ADENOMA, Dose [Carcinogen]: 1.5% IN DIET FOR 48 WK, Promoter: NONE USED","4/27 (15%), 0/14 (0%), 100%, not calculated"
same,outcome,"Carcinogen: 1-HYDROXYANTHRAQUINONE, 129-43-1, Dose [Inhibitor]: 0, 16 PPM IN DRINKING WATER FOR 48 WK (STUDY DURATION: 48 WK), Route [Inhibitor]: ORAL, Species: RAT, Strain/Sex: ACI/MALE, Target Tissue: Type of Lesion: FORESTOMACH: PAPILLOMA, Dose [Carcinogen]: 1.5% IN DIET FOR 48 WK, Promoter: NONE USED","14/27 (52%), 2/14 (14%), p= 0.01"
same,"tumour outcome (control, treated, inhibition, significance)","Carcinogen: 1-HYDROXYANTHRAQUINONE, 129-43-1, Dose [Inhibitor]: 0, 16 PPM IN DRINKING WATER FOR 48 WK (STUDY DURATION: 48 WK), Route [Inhibitor]: ORAL, Species: RAT, Strain/Sex: ACI/MALE, Target Tissue: Type of Lesion: FORESTOMACH: TUMOR, Dose [Carcinogen]: 1.5% IN DIET FOR 48 WK, Promoter: NONE USED","14/27 (52%), 2/14 (14%), 73%, p<0.01"
same,"tumour outcome (control, treated, inhibition, significance)","Carcinogen: 1-HYDROXYANTHRAQUINONE, 129-43-1, Dose [Inhibitor]: 0, 16 PPM IN DRINKING WATER FOR 48 WK (STUDY DURATION: 48 WK), Route [Inhibitor]: ORAL, Species: RAT, Strain/Sex: ACI/MALE, Target Tissue: Type of Lesion: LARGE BOWEL: ADENOMA, Dose [Carcinogen]: 1.5% IN DIET FOR 48 WK, Promoter: NONE USED","5/27 (19%), 0/14 (0%), 100%, not calculated"
same,"tumour outcome (control, treated, inhibition, significance)","Carcinogen: 1-HYDROXYANTHRAQUINONE, 129-43-1, Dose [Inhibitor]: 0, 16 PPM IN DRINKING WATER FOR 48 WK (STUDY DURATION: 48 WK), Route [Inhibitor]: ORAL, Species: RAT, Strain/Sex: ACI/MALE, Target Tissue: Type of Lesion: LARGE BOWEL: TUMOR, Dose [Carcinogen]: 1.5% IN DIET FOR 48 WK, Promoter: NONE USED","12/27 (44%), 0/14 (0%), 100%, not calculated"
same,"tumour outcome (control, treated, inhibition, significance)","Carcinogen: 1-HYDROXYANTHRAQUINONE, 129-43-1, Dose [Inhibitor]: 0, 16 PPM IN DRINKING WATER FOR 48 WK (STUDY DURATION: 48 WK), Route [Inhibitor]: ORAL, Species: RAT, Strain/Sex: ACI/MALE, Target Tissue: Type of Lesion: LIVER: NEOPLASTIC NODULE, Dose [Carcinogen]: 1.5% IN DIET FOR 48 WK, Promoter: NONE USED","1/27 (4%), 0/14 (0%), 100%, not calculated"
same,"tumour outcome (control, treated, inhibition, significance)","Carcinogen: 1-HYDROXYANTHRAQUINONE, 129-43-1, Dose [Inhibitor]: 0, 16 PPM IN DRINKING WATER FOR 48 WK (STUDY DURATION: 48 WK), Route [Inhibitor]: ORAL, Species: RAT, Strain/Sex: ACI/MALE, Target Tissue: Type of Lesion: LIVER: TUMOR, Dose [Carcinogen]: 1.5% IN DIET FOR 48 WK, Promoter: NONE USED","1/27 (4%), 0/14 (0%), 100%, not calculated"
same,"tumour outcome (control, treated, inhibition, significance)","Carcinogen: 2-ACETYLAMINOFLUORENE, 53-96-3, Dose [Inhibitor]: 0, 10 PPM IN DRINKING WATER FOR 18 WK BEGINNING 1 WK PRIOR TO CARCINOGEN TREATMENT (STUDY DURATION: 36 WK), Route [Inhibitor]: ORAL, Species: RAT, Strain/Sex: ACI/N/MALE, Target Tissue: Type of Lesion: LIVER: TUMOR, Dose [Carcinogen]: 200 PPM IN DIET FOR 16 WK, Promoter: NONE USED","10/10 (100%), 1/10 (10%), 90%, p=0.00006"
same,outcome,"Carcinogen: 4-HYDROXYBUTYL(BUTYL)NITROSAMINE [3817-11-6], Dose [Inhibitor]: 20 MG/KG IN DIET 1 WK AFTER CARCINOGEN (STUDY DURATION: 32 WK), Route [Inhibitor]: DIET, Species: MOUSE, Strain/Sex: B6D2F1/MALE, Target Tissue: Type of Lesion: BLADDER: CARCINOMA, Dose [Carcinogen]: 7.5 MG/WK FOR 12 WK","32, 6, 81%"
same,outcome,"Carcinogen: 4-HYDROXYBUTYL(BUTYL)NITROSAMINE [3817-11-6], Dose [Inhibitor]: 20 MG/KG IN DIET 1 WK AFTER LAST CARCINOGEN DOSE (STUDY DURATION: 61 WK), Route [Inhibitor]: DIET, Species: MOUSE, Strain/Sex: B6D2F1/MALE, Target Tissue: Type of Lesion: BLADDER: CARCINOMA, Dose [Carcinogen]: 7.5 MG/WK FOR 12 WK","66, 26, 61%"
same,outcome,"Carcinogen: 4-HYDROXYBUTYL(BUTYL)NITROSAMINE [3817-11-6], Dose [Inhibitor]: 20 MG/KG IN DIET 1 WK AFTER LAST CARCINOGEN DOSE FOR 12 WK (STUDY DURATION: 42 WK), Route [Inhibitor]: DIET, Species: MOUSE, Strain/Sex: B6D2F1/MALE, Target Tissue: Type of Lesion: BLADDER: CARCINOMA, Dose [Carcinogen]: 7.5 MG/WK FOR 12 WK","31, 16, 48%"
